Tested on: rough dry skin
Assay: Skin moisturization evaluation: appearance of treated skin under the dissection microscope
Assay type: in vivo
Details: 5% solution applied to skin; scale of 1 to 5, 1 being poor and 5 being best
Source text: The effect of moisturization can be measured by the appearance of the skin when treated. Untreated skin that is in need of moisturization is rough, scaly and dry looking under the dissection microscope. The application of the moisturization solution to the skin and its effect upon minimizing roughness, scaling and dry appearance is a good measure of moisturization. We performed such an evaluation and rated the performance of a scale of 1 to 5. 1 being poor and 5 being best.

SMILES | Rating (moisturization: minimizing roughness, scaling and dry appearance)
C[N+](C)(C)CCO [Choline] | 4
OCC(O)CO [Glycerin] | 2
